Calls of active or inactive are those of the source. The calls are words filed in the database; no cut-off is given here.
Assays:
[1] = system: Endothelial cell; test: Binding affinity to Pgp in bovine brain microvessel endothelial cells assessed as increase in rhodamine uptake at 10 uM relative to control; assay type: cell-based; conditions: Bos taurus
[2] = Ratio of compound ED50 to paclitaxel ED50 for tubulin assembly
[3] = system: NCI/ADR-RES; test: Ratio of compound ED50 to paclitaxel ED50 for human NCI/ADR-RES cells; assay type: functional
[4] = system: MCF7; test: Ratio of compound ED50 to paclitaxel ED50 for human MCF7 cells; assay type: functional
[5] = system: MCF7; test: Cytotoxicity against human MCF7 cells; assay type: functional; conditions: read-out: ED50 (the source's name)
[6] = system: NCI/ADR-RES; test: Cytotoxicity against human NCI/ADR-RES cells; assay type: functional; conditions: read-out: ED50 (the source's name)

Row | SMILES | Activity [1] | Ratio ED50 [2] | Ratio ED50 [3] | Ratio ED50 [4] | EC50 [5] [nM] | EC50 [6] [nM]
1 | CC(=O)O[C@@]12CO[C@@H]1C[C@H](O)[C@@]1(C)C(=O)[C@H](OC(=O)CCC(=O)N(C)C)C3=C(C)[C@@H](OC(=O)[C@H](O)[C@@H](NC(=O)c4ccccc4)c4ccccc4)C[C@@](O)([C@@H](OC(=O)c4ccccc4)[C@H]21)C3(C)C | Active | 1.6 | 2.7 | 2.1 |  | 
2 | CNC(=O)CCC(=O)O[C@H]1C[C@H]2OC[C@@]2(OC(C)=O)[C@H]2[C@H](OC(=O)c3ccccc3)[C@]3(O)C[C@H](OC(=O)[C@H](O)[C@@H](NC(=O)c4ccccc4)c4ccccc4)C(C)=C([C@@H](OC(C)=O)C(=O)[C@]12C)C3(C)C | Active | 0.8 |  |  |  | 
3 | CC(=O)O[C@H]1C(=O)[C@]2(C)[C@@H](OC(=O)CCC(N)=O)C[C@H]3OC[C@@]3(OC(C)=O)[C@H]2[C@H](OC(=O)c2ccccc2)[C@]2(O)C[C@H](OC(=O)[C@H](O)[C@@H](NC(=O)c3ccccc3)c3ccccc3)C(C)=C1C2(C)C | Active | 0.6 |  |  |  | 
4 | CC(=O)O[C@H]1C(=O)[C@]2(C)[C@@H](OC(=O)CCCC(=O)O)C[C@H]3OC[C@@]3(OC(C)=O)[C@H]2[C@H](OC(=O)c2ccccc2)[C@]2(O)C[C@H](OC(=O)[C@H](O)[C@@H](NC(=O)c3ccccc3)c3ccccc3)C(C)=C1C2(C)C |  | 1 |  |  |  | 
5 | CC(=O)O[C@@]12CO[C@@H]1C[C@H](O)[C@@]1(C)C(=O)[C@H](OC(=O)CCCC(=O)N(C)C)C3=C(C)[C@@H](OC(=O)[C@H](O)[C@@H](NC(=O)c4ccccc4)c4ccccc4)C[C@@](O)([C@@H](OC(=O)c4ccccc4)[C@H]21)C3(C)C | Active | 2.2 |  |  |  | 
6 | CC(=O)O[C@@]12CO[C@@H]1C[C@H](O)[C@@]1(C)C(=O)[C@H](OC(=O)CCCC(=O)O)C3=C(C)[C@@H](OC(=O)[C@H](O)[C@@H](NC(=O)c4ccccc4)c4ccccc4)C[C@@](O)([C@@H](OC(=O)c4ccccc4)[C@H]21)C3(C)C |  | 1.8 |  |  |  | 
7 | COC(=O)CCC(=O)O[C@H]1C(=O)[C@@]2(C)[C@H]([C@H](OC(=O)c3ccccc3)[C@]3(O)C[C@H](OC(=O)[C@H](O)[C@@H](NC(=O)c4ccccc4)c4ccccc4)C(C)=C1C3(C)C)[C@]1(OC(C)=O)CO[C@@H]1C[C@@H]2O |  | 1 | 0.4 | 2.5 |  | 
8 | CC(=O)O[C@H]1C(=O)[C@]2(C)[C@@H](OC(=O)CCC(=O)O)C[C@H]3OC[C@@]3(OC(C)=O)[C@H]2[C@H](OC(=O)c2ccccc2)[C@]2(O)C[C@H](OC(=O)[C@H](O)[C@@H](NC(=O)c3ccccc3)c3ccccc3)C(C)=C1C2(C)C |  | 3.8 |  |  |  | 
9 | CC(=O)O[C@@]12CO[C@@H]1C[C@H](O)[C@@]1(C)C(=O)[C@H](OC(=O)CCC(N)=O)C3=C(C)[C@@H](OC(=O)[C@H](O)[C@@H](NC(=O)c4ccccc4)c4ccccc4)C[C@@](O)([C@@H](OC(=O)c4ccccc4)[C@H]21)C3(C)C | Active | 0.4 | 6 | 10 |  | 
10 | CC(=O)O[C@H]1C(=O)[C@]2(C)[C@@H](OC(=O)CCCC(=O)N(C)C)C[C@H]3OC[C@@]3(OC(C)=O)[C@H]2[C@H](OC(=O)c2ccccc2)[C@]2(O)C[C@H](OC(=O)[C@H](O)[C@@H](NC(=O)c3ccccc3)c3ccccc3)C(C)=C1C2(C)C | Active | 0.7 |  |  |  | 
11 | CNC(=O)CCCC(=O)O[C@H]1C[C@H]2OC[C@@]2(OC(C)=O)[C@H]2[C@H](OC(=O)c3ccccc3)[C@]3(O)C[C@H](OC(=O)[C@H](O)[C@@H](NC(=O)c4ccccc4)c4ccccc4)C(C)=C([C@@H](OC(C)=O)C(=O)[C@]12C)C3(C)C | Active | 0.8 | 3.2 | 3.7 |  | 
12 | CNC(=O)CCC(=O)O[C@H]1C(=O)[C@@]2(C)[C@H]([C@H](OC(=O)c3ccccc3)[C@]3(O)C[C@H](OC(=O)[C@H](O)[C@@H](NC(=O)c4ccccc4)c4ccccc4)C(C)=C1C3(C)C)[C@]1(OC(C)=O)CO[C@@H]1C[C@@H]2O | Active | 0.8 | 6 | 7.9 |  | 
13 | CC(=O)O[C@H]1C(=O)[C@]2(C)[C@@H](OC(=O)CCC(=O)N(C)C)C[C@H]3OC[C@@]3(OC(C)=O)[C@H]2[C@H](OC(=O)c2ccccc2)[C@]2(O)C[C@H](OC(=O)[C@H](O)[C@@H](NC(=O)c3ccccc3)c3ccccc3)C(C)=C1C2(C)C | Active | 1.1 |  |  |  | 
14 | COC(=O)CCC(=O)O[C@H]1C[C@H]2OC[C@@]2(OC(C)=O)[C@H]2[C@H](OC(=O)c3ccccc3)[C@]3(O)C[C@H](OC(=O)[C@H](O)[C@@H](NC(=O)c4ccccc4)c4ccccc4)C(C)=C([C@@H](OC(C)=O)C(=O)[C@]12C)C3(C)C | Active | 1.2 |  |  |  | 
15 | CC(=O)O[C@@]12CO[C@@H]1C[C@H](O)[C@@]1(C)C(=O)[C@H](OC(=O)CCC(=O)O)C3=C(C)[C@@H](OC(=O)[C@H](O)[C@@H](NC(=O)c4ccccc4)c4ccccc4)C[C@@](O)([C@@H](OC(=O)c4ccccc4)[C@H]21)C3(C)C |  | 1.7 |  |  |  | 
16 | CC(=O)O[C@H]1C(=O)[C@@]2(C)[C@H]([C@H](OC(=O)c3ccccc3)[C@]3(O)C[C@H](OC(=O)[C@H](O)[C@@H](NC(=O)c4ccccc4)c4ccccc4)C(C)=C1C3(C)C)[C@]1(OC(C)=O)CO[C@@H]1C[C@@H]2O [PACLITAXEL] |  |  |  |  | 3.2 | 1500
17 | CC(=O)O[C@@]12CO[C@@H]1C[C@H](O)[C@@]1(C)C(=O)[C@H](OC(=O)CCCC(N)=O)C3=C(C)[C@@H](OC(=O)[C@H](O)[C@@H](NC(=O)c4ccccc4)c4ccccc4)C[C@@](O)([C@@H](OC(=O)c4ccccc4)[C@H]21)C3(C)C | Active | 1.8 |  |  |  | 
18 | CNC(=O)CCCC(=O)O[C@H]1C(=O)[C@@]2(C)[C@H]([C@H](OC(=O)c3ccccc3)[C@]3(O)C[C@H](OC(=O)[C@H](O)[C@@H](NC(=O)c4ccccc4)c4ccccc4)C(C)=C1C3(C)C)[C@]1(OC(C)=O)CO[C@@H]1C[C@@H]2O | Active | 1.8 |  |  |  | 
19 | CC(=O)O[C@H]1C(=O)[C@]2(C)[C@@H](OC(=O)CCCC(N)=O)C[C@H]3OC[C@@]3(OC(C)=O)[C@H]2[C@H](OC(=O)c2ccccc2)[C@]2(O)C[C@H](OC(=O)[C@H](O)[C@@H](NC(=O)c3ccccc3)c3ccccc3)C(C)=C1C2(C)C | Active | 0.6 |  |  |  | 

Source: ChEMBL document CHEMBL1152132 (2008)
